These are literature values, as cited in US20040202640A1, “Method for topical treatment of scars with rotein Kinase C inhibitors” (priority 2003, published 2004).

In data set [1] the test system is phorbol ester induced omithine decarboxylase activity. To be noted: mouse skin.
Data set [2] addresses calmodulin (CaM) (Homo sapiens, UniProt P0DP23).
Data set [3] deals with PKC.

Regarding `CCCCCCCCCCCCC/C=C/[C@@H](O)[C@@H](N)CO` [Sphingosine], the “phorbol ester induced omithine decarboxylase activity” value in data set [1] was “inhibit”. Moreover, the CaM function entry in data set [2] is on record as “inhibits CaM function”. In addition, the PKC inhibition entry in data set [3] is “dose-dependently inhibits PKC”.
In the case of `CCCCCCCCCCCCC/C=C/[C@@H](O)[C@@H](N)COP(=O)(O)O` [sphingosingosine-1-phosphate, sphingosine-1 phosphate], the PKC inhibition entry in data set [3] is listed as “more effective PKC inhibitor than sphingosine”.
